Like-named read-outs stand apart in the source and are kept apart here.
How the values were obtained:
[1] = tested on: HCV genotype 1a (H77 strain) replicon in HUH-7 cells; assay: HCV replicon luciferase reporter assay, genotype 1a; assay type: cell-based; details: Hepatitis C virus, Huh-7, 72 h, HCV genotype 1a replicon luciferase assay, 3 days incubation, range class, read-out: LE_1a (EC50, range)
How it was run: (§1)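 Replicon inhibition for both genotypes was measured as Renilla luciferase signal (EnduRen, 7.5 μM final, 2 h) after 3-day, 37° C exposure of replicon-bearing HUH-7 cells in 4% FCS DMEM, 0.5% DMSO. The 1b construct carries S1179I; the 1a H77 construct carries P1496L and S2204I. Twenty-point, 3-fold dilutions were fitted four-parametrically for EC50, and CC50 was taken from multiplexed Cell Titer-Blue.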

[2] = tested on: HCV genotype 1b (Con1) replicon in HUH-7 cells; assay: HCV replicon luciferase reporter assay, genotype 1b; assay type: cell-based; details: Hepatitis C virus, Huh-7, 72 h, HCV genotype 1b replicon luciferase assay, 3 days incubation, range class, read-out: LE_1b (EC50, range)
How it was run: as §1

SMILES | EC50 [1] | EC50 [2] | EC50 ([1]; GETYPE1A) | EC50 ([2]; GETYPE1B)
CC[C@@H]1C[C@H](C)CC/C=C\[C@@H]2C[C@@]2(C(=O)NS(=O)(=O)C2(C)CC2)NC(=O)[C@@H]2C[C@@H](Oc3nccc4c(OC)cccc34)CN2C(=O)[C@H]1NC(=O)NC(C)(C)C [Compound 3034, (2R,6S,7R,9R,13aS,14aR,16aS,Z)-6-(3-(tert-butyl)ureido)-7-ethyl-2-((5-methoxyisoquinolin-1-yl)oxy)-9-methyl-N-((1-methylcyclopropyl)sulfonyl)-5,16-dioxo-1,2,3,5,6,7,8,9,10,11,13a,14,14a,15,16,16a-hexadecahydrocyclopropa[e]pyrrolo[1,2-a][1,4]diazacyclopentadecine-14a-carboxamide] | < 5.46 nM | < 5.46 nM | – | –
COc1cccc2c(O[C@@H]3C[C@H]4C(=O)N[C@]5(C(=O)NS(=O)(=O)C6(C)CC6)C[C@H]5/C=C\CC[C@H](C)C[C@@H](C)[C@H](NC(=O)OC(C)(C)C)C(=O)N4C3)nccc12 [Compound 3035, tert-butyl ((2R,6S,7R,9S,13aS,14aR,16aS,Z)-2-((5-methoxyisoquinolin-1-yl)oxy)-7,9-dimethyl-14a-(((1-methylcyclopropyl)sulfonyl)carbamoyl)-5,16-dioxo-1,2,3,5,6,7,8,9,10,11,13a,14,14a,15,16,16a-hexadecahydrocyclopropa[e]pyrrolo[1,2-a][1,4]diazacyclopentadecin-6-yl)carbamate] | 4.82 to 103 nM | < 5.46 nM | – | –
COc1cccc2c(O[C@@H]3C[C@H]4C(=O)N[C@]5(C(=O)NS(=O)(=O)C6(C)CC6)C[C@H]5/C=C\CC[C@@H](C)C[C@@H](C)[C@H](NC(=O)OC(C)(C)C)C(=O)N4C3)nccc12 [Compound 3036, tert-butyl ((2R,6S,7R,9R,13aS,14aR,16aS,Z)-2-((5-methoxyisoquinolin-1-yl)oxy)-7,9-dimethyl-14a-(((1-methylcyclopropyl)sulfonyl)carbamoyl)-5,16-dioxo-1,2,3,5,6,7,8,9,10,11,13a,14,14a,15,16,16a-hexadecahydrocyclopropa[e]pyrrolo[1,2-a][1,4]diazacyclopentadecin-6-yl)carbamate] | < 5.46 nM | < 5.46 nM | – | –
COc1cccc2c(O[C@@H]3C[C@H]4C(=O)N[C@]5(C(=O)NS(=O)(=O)C6(C)CC6)C[C@H]5/C=C\CC[C@H](C)C[C@@H](C)[C@H](NC(=O)OC(C)(C)C(F)(F)F)C(=O)N4C3)nccc12 [Compound 3037, 1,1,1-trifluoro-2-methylpropan-2-yl((2R,6S,7R,9S,13aS,14aR,16aS,Z)-2-((5-methoxyisoquinolin-1-yl)oxy)-7,9-dimethyl-14a-(((1-methylcyclopropyl)sulfonyl)carbamoyl)-5,16-dioxo-1,2,3,5,6,7,8,9,10,11,13a,14,14a,15,16,16a-hexadecahydrocyclopropa[e]pyrrolo[1,2-a][1,4]diazacyclopentadecin-6-yl)carbamate] | 4.82 to 103 nM | < 5.46 nM | – | –
COc1cccc2c(O[C@@H]3C[C@H]4C(=O)N[C@]5(C(=O)NS(=O)(=O)C6(CF)CC6)C[C@H]5/C=C\CC[C@@H](C)C[C@@H](C)[C@H](NC(=O)OC(C)(C)C)C(=O)N4C3)nccc12 [Compound 3039, tert-butyl ((2R,6S,7R,9R,13aS,14aR,16aS,Z)-14a-(((1-(fluoromethyl)cyclopropyl)sulfonyl)carbamoyl)-2-((5-methoxyisoquinolin-1-yl)oxy)-7,9-dimethyl-5,16-dioxo-1,2,3,5,6,7,8,9,10,11,13a,14,14a,15,16,16a-hexadecahydrocyclopropa[e]pyrrolo[1,2-a][1,4]diazacyclopentadecin-6-yl)carbamate] | < 5.46 nM | < 5.46 nM | – | –
COc1cccc2c(O[C@@H]3C[C@H]4C(=O)N[C@]5(C(=O)NS(=O)(=O)C6(CF)CC6)C[C@H]5/C=C\CC[C@@H](C)C[C@@H](C)[C@H](NC(=O)OC(C)(C)C(F)(F)F)C(=O)N4C3)nccc12 [Compound 3040] | – | – | < 5.46 nM | < 5.46 nM
COc1ccc2c(O[C@@H]3C[C@H]4C(=O)N[C@]5(C(=O)NS(=O)(=O)C6CC6)C[C@H]5/C=C\CC[C@H](C)C[C@@H](C)[C@H](NC(=O)OC(C)(C)C)C(=O)N4C3)nc(-c3ccc(F)cc3)cc2c1 [Compound 3041, tert-butyl ((2R,6S,7R,9S,13aS,14aR,16aS,Z)-14a-((cyclopropylsulfonyl)carbamoyl)-2-((3-(4-fluorophenyl)-6-methoxyisoquinolin-1-yl)oxy)-7,9-dimethyl-5,16-dioxo-1,2,3,5,6,7,8,9,10,11,13a,14,14a,15,16,16a-hexadecahydrocyclopropa[e]pyrrolo[1,2-a][1,4]diazacyclopentadecin-6-yl)carbamate] | < 5.46 nM | < 5.46 nM | – | –
COc1ccc2c(O[C@@H]3C[C@H]4C(=O)N[C@]5(C(=O)NS(=O)(=O)C6CC6)C[C@H]5/C=C\CC[C@@H](C)C[C@@H](C)[C@H](NC(=O)OC(C)(C)C)C(=O)N4C3)nc(-c3ccc(F)cc3)cc2c1 [Compound 3042, tert-butyl ((2R,6S,7R,9R,13aS,14aR,16aS,Z)-14a-((cyclopropylsulfonyl)carbamoyl)-2-((3-(4-fluorophenyl)-6-methoxyisoquinolin-1-yl)oxy)-7,9-dimethyl-5,16-dioxo-1,2,3,5,6,7,8,9,10,11,13a,14,14a,15,16,16a-hexadecahydrocyclopropa[e]pyrrolo[1,2-a][1,4]diazacyclopentadecin-6-yl)carbamate] | < 5.46 nM | < 5.46 nM | – | –
COc1ccc2c(O[C@@H]3C[C@H]4C(=O)N[C@]5(C(=O)NS(=O)(=O)C6CC6)C[C@H]5/C=C\CC[C@H](C)C[C@@H](C)[C@H](NC(=O)OC(C)(C)C(F)(F)F)C(=O)N4C3)nc(-c3ccc(F)cc3)cc2c1 [Compound 3043, 1,1,1-trifluoro-2-methylpropan-2-yl((2R,6S,7R,9S,13aS,14aR,16aS,Z)-14a-((cyclopropylsulfonyl)carbamoyl)-2-((3-(4-fluorophenyl)-6-methoxyisoquinolin-1-yl)oxy)-7,9-dimethyl-5,16-dioxo-1,2,3,5,6,7,8,9,10,11,13a,14,14a,15,16,16a-hexadecahydrocyclopropa[e]pyrrolo[1,2-a][1,4]diazacyclopentadecin-6-yl)carbamate] | < 5.46 nM | < 5.46 nM | – | –
COc1ccc2c(O[C@@H]3C[C@H]4C(=O)N[C@]5(C(=O)NS(=O)(=O)C6CC6)C[C@H]5/C=C\CC[C@@H](C)C[C@@H](C)[C@H](NC(=O)OC(C)(C)C(F)(F)F)C(=O)N4C3)nc(-c3ccc(F)cc3)cc2c1 [Compound 3044, 1,1,1-trifluoro-2-methylpropan-2-yl((2R,6S,7R,9R,13aS,14aR,16aS,Z)-14a-((cyclopropylsulfonyl)carbamoyl)-2-((3-(4-fluorophenyl)-6-methoxyisoquinolin-1-yl)oxy)-7,9-dimethyl-5,16-dioxo-1,2,3,5,6,7,8,9,10,11,13a,14,14a,15,16,16a-hexadecahydrocyclopropa[e]pyrrolo[1,2-a][1,4]diazacyclopentadecin-6-yl)carbamate] | < 5.46 nM | < 5.46 nM | – | –
COc1ccc2c(O[C@@H]3C[C@H]4C(=O)N[C@]5(C(=O)NS(=O)(=O)C6CC6)C[C@H]5/C=C\CC[C@H](C)C[C@@H](C)[C@H](NC(=O)O[C@@H]5C[C@@H]6C[C@@H]6C5)C(=O)N4C3)nc(-c3ccc(F)cc3)cc2c1 [Compound 3045, (1R,3r,5S)-bicyclo[3.1.0]hexan-3-yl((2R,6S,7R,9S,13aS,14aR,16aS,Z)-14a-((cyclopropylsulfonyl)carbamoyl)-2-((3-(4-fluorophenyl)-6-methoxyisoquinolin-1-yl)oxy)-7,9-dimethyl-5,16-dioxo-1,2,3,5,6,7,8,9,10,11,13a,14,14a,15,16,16a-hexadecahydrocyclopropa[e]pyrrolo[1,2-a][1,4]diazacyclopentadecin-6-yl)carbamate] | < 5.46 nM | < 5.46 nM | – | –
COc1ccc2c(O[C@@H]3C[C@H]4C(=O)N[C@]5(C(=O)NS(=O)(=O)C6CC6)C[C@H]5/C=C\CC[C@@H](C)C[C@@H](C)[C@H](NC(=O)O[C@@H]5C[C@@H]6C[C@@H]6C5)C(=O)N4C3)nc(-c3ccc(F)cc3)cc2c1 [Compound 3046, (1R,3r,5S)-bicyclo[3.1.0]hexan-3-yl((2R,6S,7R,9R,13aS,14aR,16aS,Z)-14a-((cyclopropylsulfonyl)carbamoyl)-2-((3-(4-fluorophenyl)-6-methoxyisoquinolin-1-yl)oxy)-7,9-dimethyl-5,16-dioxo-1,2,3,5,6,7,8,9,10,11,13a,14,14a,15,16,16a-hexadecahydrocyclopropa[e]pyrrolo[1,2-a][1,4]diazacyclopentadecin-6-yl)carbamate] | < 5.46 nM | < 5.46 nM | – | –
COc1ccc2c(O[C@@H]3C[C@H]4C(=O)N[C@]5(C(=O)NS(=O)(=O)C6CC6)C[C@H]5/C=C\CC[C@H](C)C[C@@H](C)[C@H](NC(=O)OC(C)(C)C)C(=O)N4C3)nc(-c3ccc(OC)c(Cl)c3)cc2c1 [Compound 3047, tert-butyl ((2R,6S,7R,9S,13aS,14aR,16aS,Z)-2-((3-(3-chloro-4-methoxyphenyl)-6-methoxyisoquinolin-1-yl)oxy)-14a-((cyclopropylsulfonyl)carbamoyl)-7,9-dimethyl-5,16-dioxo-1,2,3,5,6,7,8,9,10,11,13a,14,14a,15,16,16a-hexadecahydrocyclopropa[e]pyrrolo[1,2-a][1,4]diazacyclopentadecin-6-yl)carbamate] | 4.82 to 103 nM | < 5.46 nM | – | –
